Here are results for eight compounds from PubChem BioAssay (NCI).

Test systems include MOLT-4 leukemia; HCT-116 colon; MDA-MB-435; HL-60(TB) leukemia; CAKI-1 renal; A549 NSCLC; TK-10 renal; NCI-H226 lung; ACHN renal; OVCAR-3 ovarian.
Test in all cases: inhibition of tumour cell growth, NCI panel, 48 h

Several values for one entry are separate records, joined by “and”; a condition that tells them apart may be missing. Identical values can stand only once.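 Five compound concentrations were applied to cells in 96-well plates for 48 hours; endpoints were derived by simple linear interpolation of the resulting dose-response curve. GI50: concentration for 50% inhibition of growth. TGI: total growth inhibition.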

Consider `CN(C)CC1C(=O)O[C@H]2[C@H]1CC/C(COC(=O)c1cc3ccccc3[nH]1)=C\CC[C@@]1(C)O[C@@H]21` (some centres undefined), for which the GI50 was 1.98 µM in the test with MOLT-4 leukemia; 0.577 µM in the test on HCT-116 colon; 1.49 µM in the test on MDA-MB-435; 0.663 µM in the test with HL-60(TB) leukemia; 1.31 µM with CAKI-1 renal; 4.62 µM with A549 NSCLC. For the same compound, the GI50 in the test on TK-10 renal is 2.04 µM; in the test on NCI-H226 lung it was 3.23 µM; in the test with ACHN renal it was 0.923 µM; in the test on OVCAR-3 ovarian, 0.672 µM. For the same compound, the TGI turned out to be 7.32 µM in the test on MOLT-4 leukemia; 1.57 µM in the test on HCT-116 colon; 3.2 µM with MDA-MB-435; 3.53 µM in the test with HL-60(TB) leukemia; 2.85 µM in the test with CAKI-1 renal; 14.3 µM in the test with A549 NSCLC. Moreover, the TGI with TK-10 renal amounted to 3.98 µM; in the test with NCI-H226 lung, 9.35 µM; in the test with ACHN renal, 2.48 µM; in the test on OVCAR-3 ovarian, 1.76 µM.
For the compound `CCCCCCCCCCCCOC1C(C(COC2OC(C3COC(C)(C)O3)C3OC(C)(C)OC23)NC(=O)NS(=O)(=O)c2ccccc2)OC2OC(C)(C)OC21` (centres undefined), the GI50 was 0.0149 µM in the test with MOLT-4 leukemia; 4.05 µM in the test with HCT-116 colon; 4.6 µM in the test with MDA-MB-435; 0.406 µM in the test on HL-60(TB) leukemia; 7.14 µM in the test with CAKI-1 renal; 4.58 µM in the test on A549 NSCLC. In addition, the GI50 was 5.96 µM in the test on TK-10 renal, 6 µM with NCI-H226 lung, 4.22 µM in the test with ACHN renal and 2.78 µM with OVCAR-3 ovarian. Also, the TGI with MOLT-4 leukemia is 0.12 µM; with HCT-116 colon it was 16.3 µM; with MDA-MB-435, 21.5 µM; with HL-60(TB) leukemia, 2.69 µM; in the test on CAKI-1 renal, 20 µM; in the test with A549 NSCLC, 27.3 µM. Further, the TGI was 19.6 µM in the test with TK-10 renal, 45.8 µM in the test with NCI-H226 lung, 15.2 µM in the test with ACHN renal and 8.39 µM in the test on OVCAR-3 ovarian.
Regarding `C=C1C(=O)O[C@H]2[C@H](OC(C)=O)[C@@H](C)CCC/C(C)=C/CC[C@@]3(C)O[C@@H]3C[C@@H]12`, the TGI in the test with MOLT-4 leukemia came to 10.1 µM; in the test with HCT-116 colon, 6.83 µM; in the test on MDA-MB-435, 15.1 µM; with HL-60(TB) leukemia, 2.38 µM; with CAKI-1 renal it was 5.37 µM; with A549 NSCLC, 34.6 µM. Further, the TGI turned out to be 5 µM with TK-10 renal, 3.32 µM with NCI-H226 lung, 3.4 µM in the test with ACHN renal and 16.2 µM in the test with OVCAR-3 ovarian.
With `COc1cc(/C=C/C(=O)c2c(C)nc3ccccc3c2/C=C/c2ccc(C)cc2)cc(OC)c1OC`, the GI50 with MOLT-4 leukemia was 2.56 µM; in the test on HCT-116 colon, 1.36 µM; in the test with MDA-MB-435, 1.99 µM; in the test with HL-60(TB) leukemia it was 2.22 µM; with CAKI-1 renal, 1.4 µM; in the test with A549 NSCLC, 2.94 µM. Further, the GI50 in the test with TK-10 renal is 5.37 µM; in the test on NCI-H226 lung it was 2.18 µM; in the test on ACHN renal, 1.99 µM; in the test on OVCAR-3 ovarian, 1.76 µM. Further, the TGI was more than 100 µM in the test with MOLT-4 leukemia; 2.82 µM with HCT-116 colon; 4.55 µM in the test with MDA-MB-435; 6.29 µM in the test on HL-60(TB) leukemia; 3.01 µM with CAKI-1 renal; more than 100 µM with A549 NSCLC. In addition, the TGI in the test with TK-10 renal amounted to 67 µM; in the test on NCI-H226 lung, 6.11 µM; with ACHN renal, 4.6 µM; in the test on OVCAR-3 ovarian, 3.23 µM.
With `Nc1c([N+](=O)[O-])cc2c3c(cccc13)CC2`, the TGI with MOLT-4 leukemia, in the test with HCT-116 colon, in the test with MDA-MB-435, in the test with HL-60(TB) leukemia, with CAKI-1 renal and in the test on A549 NSCLC was more than 100 µM throughout. For the same compound, the TGI with TK-10 renal, in the test with NCI-H226 lung, with ACHN renal and in the test with OVCAR-3 ovarian was more than 100 µM throughout.
As for `COc1ccc(-n2cc(-c3cc(OC)c(OC)c(OC)c3)nc2SCc2ccccc2)cc1OC`, the GI50 in the test with MOLT-4 leukemia is 24.6 µM; in the test with HCT-116 colon it was 49.1 µM; with MDA-MB-435, more than 100 µM; with HL-60(TB) leukemia, 48.2 µM; with CAKI-1 renal, more than 96.6 µM; with A549 NSCLC, 48.8 µM. In addition, the GI50 in the test with TK-10 renal is more than 100 µM; in the test with NCI-H226 lung, more than 78.7 µM; with ACHN renal, more than 92.9 µM; in the test with OVCAR-3 ovarian, more than 100 µM. Moreover, the TGI in the test with MOLT-4 leukemia, in the test with HCT-116 colon, with MDA-MB-435, in the test with HL-60(TB) leukemia, in the test with CAKI-1 renal and in the test on A549 NSCLC was more than 100 µM each time. Moreover, the TGI with TK-10 renal, in the test on NCI-H226 lung, in the test with ACHN renal and in the test with OVCAR-3 ovarian was more than 100 µM each time.
With `COc1cc2c(cc1OCCCCCOc1ccc(-n3c(C)nc4ccccc4c3=O)cc1)N=C[C@@H]1CCCN1C2=O`, the GI50 with MOLT-4 leukemia was 0.196 µM; with HCT-116 colon, 0.167 µM; with MDA-MB-435, 0.184 µM; in the test on HL-60(TB) leukemia, 0.34 µM; with CAKI-1 renal it was 0.275 µM; in the test on A549 NSCLC, 0.276 µM. The GI50 in the test with TK-10 renal is 0.32 µM; in the test on NCI-H226 lung, 0.214 µM; in the test on ACHN renal, 0.342 µM; in the test on OVCAR-3 ovarian, 0.346 µM. The TGI is 0.5 µM in the test on MOLT-4 leukemia; 0.327 µM in the test on HCT-116 colon; 0.39 µM in the test with MDA-MB-435; 1.3 µM with HL-60(TB) leukemia; 1.02 µM in the test with CAKI-1 renal; 0.982 µM with A549 NSCLC. In addition, the TGI in the test on TK-10 renal was found to be 0.867 µM; with NCI-H226 lung it was 0.466 µM; with ACHN renal, 1.53 µM; with OVCAR-3 ovarian, 15.5 µM.
Take `CC1(O)CC(c2nc(-c3ccc4ccc(-c5ccccc5)nc4c3)c3c(N)nccn23)C1` (centres undefined): the GI50 in the test on MOLT-4 leukemia is 7.16 µM and 3.72 µM; with HCT-116 colon, 7.32 µM and 5.29 µM; with MDA-MB-435, 4.53 µM and 3.69 µM; in the test with CAKI-1 renal it was 4.58 µM and 2.16 µM; in the test on A549 NSCLC it was 10.5 µM and > 10 µM; in the test on TK-10 renal, 12 µM and > 10 µM. Moreover, the GI50 was 3.72 µM and 3.12 µM with NCI-H226 lung; 7.44 µM and 7.79 µM with ACHN renal; 15 µM and > 10 µM in the test on OVCAR-3 ovarian. Besides, the TGI in the test with MOLT-4 leukemia was more than 80.1 µM; in the test on HCT-116 colon, 26.7 µM and > 10 µM; with MDA-MB-435, 27.3 µM and > 10 µM; in the test with HL-60(TB) leukemia it was 25.8 µM and > 10 µM; with CAKI-1 renal, more than 100 µM; in the test with A549 NSCLC, more than 100 µM. Moreover, the TGI in the test on TK-10 renal is 56.3 µM and > 10 µM; in the test with NCI-H226 lung it was 49.7 µM and > 10 µM; in the test on ACHN renal it was more than 100 µM; in the test on OVCAR-3 ovarian, 34.7 µM and > 10 µM.
